Experimental data taken from ChEMBL document CHEMBL3885861, “Open TG-GATES”.

Species on record: Rattus norvegicus
Assay: Open TG-GATES - Regimen: Single
Type: toxicity, organism-based, Sprague-Dawley
Set-up: regimen Single, gender Male, age 6 weeks
Conditions: in vivo, po, route gavage; for gamma-GTP / ALP / ALT / AST / BUN / CRE / DBIL / GLC / K / LDH / Na / PL / RALB / TBIL / TC / TG / TP: tissue Plasma; for APTT / Bas / Eos / Fbg / Hb / Ht / Lym / MCHC / MCV / Mono / PT / Plat / RBC / Ret / WBC: tissue Blood; for KIDNEY_L / KIDNEY_R / KIDNEY_TOTAL: tissue Kidney; for LIVER: tissue Liver
[1] = 1200 mg/kg, 3 h, dose level Middle
[2] = 1200 mg/kg, 6 h, dose level Middle
[3] = 1200 mg/kg, 9 h, dose level Middle
[4] = 1200 mg/kg, 24 h, dose level Middle

With `O=C1NC(=O)C(c2ccccc2)(c2ccccc2)N1` [PHENYTOIN] the gamma-GTP (600 mg/kg, 24 h, dose level Low) was 1 IU/L, the TERMINAL_BW [1] was 211.8 g and the APTT [1] was 16.7 s. For the same molecule, the Bas [1] was 0.2%, the Eos [1] was 1% and the Fbg [1] was 284.4 mg/dL. The Hb [1] was 13 g/dL, the Ht [1] was 38.7% and the Lym [1] was 75.2%. For the same molecule, the MCHC [1] was 33.6%, the MCV [1] was 62.4 fL and the Mono [1] was 3.4%. For the same molecule, the PT [1] was 13.8 s, the Plat [1] was 122.5 x10_4/uL and the RBC [1] was 621.4 x10_4/ul. The Ret [1] was 8.4%, the KIDNEY_L [1] was 0.9 g and the KIDNEY_R [1] was 0.9 g. The KIDNEY_TOTAL [1] was 1.8 g, the LIVER [1] was 9.3 g and the ALP [1] was 1502.4 IU/L. It also gave an ALT [1] of 35.2 IU/L, an AST [1] of 70.6 IU/L and a BUN [1] of 10.2 mg/dL. For the same molecule, the CRE [1] was 0.2 mg/dL, the DBIL [1] was 0.016 mg/dL and the GLC [1] was 191.4 mg/dL. The K [1] was 4 meq/L, the LDH [1] was 98.2 IU/L and the Na [1] was 142.2 meq/L. It also gave a PL [1] of 146.8 mg/dL, an RALB [1] of 2.5 g/dL and a TBIL [1] of 0.052 mg/dL. The TC [1] was 75.6 mg/dL, the TG [1] was 74 mg/dL and the TP [1] was 5.4 g/dL. It also gave a gamma-GTP [1] of 1.2 IU/L, a TERMINAL_BW [2] of 207.5 g and an APTT [2] of 18 s. The Bas [2] was 0.4%, the Eos [2] was 1% and the Fbg [2] was 279.4 mg/dL. It also gave a Hb [2] of 13 g/dL, a Ht [2] of 38.7% and a Lym [2] of 73.2%. For the same molecule, the MCHC [2] was 33.7%, the MCV [2] was 61.9 fL and the Mono [2] was 3%. It also gave a PT [2] of 14.5 s, an RBC [2] of 625.6 x10_4/ul and a Ret [2] of 8.2%. For the same molecule, the WBC [2] was 94.4 x10_2/uL, the KIDNEY_L [2] was 0.9 g and the KIDNEY_R [2] was 0.9 g. For the same molecule, the KIDNEY_TOTAL [2] was 1.9 g, the LIVER [2] was 8.7 g and the ALP [2] was 1256.2 IU/L. For the same molecule, the ALT [2] was 35.8 IU/L, the AST [2] was 74.8 IU/L and the BUN [2] was 7.8 mg/dL. For the same molecule, the CRE [2] was 0.2 mg/dL, the DBIL [2] was 0.016 mg/dL and the GLC [2] was 187 mg/dL. It also gave a K [2] of 3.7 meq/L, an LDH [2] of 77 IU/L and a Na [2] of 143.4 meq/L. For the same molecule, the PL [2] was 141.4 mg/dL, the RALB [2] was 2.5 g/dL and the TBIL [2] was 0.058 mg/dL. For the same molecule, the TC [2] was 76.8 mg/dL, the TG [2] was 30.6 mg/dL and the TP [2] was 5.4 g/dL. The gamma-GTP [2] was 1.2 IU/L, the TERMINAL_BW [3] was 206.4 g and the APTT [3] was 15.4 s. The Bas [3] was 0.4%, the Eos [3] was 1% and the Fbg [3] was 297 mg/dL. The Hb [3] was 13.1 g/dL, the Ht [3] was 38.9% and the Lym [3] was 78.6%. The MCHC [3] was 33.6%, the MCV [3] was 62.8 fL and the Mono [3] was 2%. The PT [3] was 14.1 s, the Plat [3] was 112.1 x10_4/uL and the RBC [3] was 619.2 x10_4/ul. For the same molecule, the Ret [3] was 7.6%, the WBC [3] was 69.7 x10_2/uL and the KIDNEY_L [3] was 0.9 g. The KIDNEY_R [3] was 0.9 g, the KIDNEY_TOTAL [3] was 1.8 g and the LIVER [3] was 8 g. The ALP [3] was 1378 IU/L, the ALT [3] was 27.2 IU/L and the AST [3] was 71 IU/L. For the same molecule, the BUN [3] was 7.4 mg/dL, the CRE [3] was 0.2 mg/dL and the DBIL [3] was 0.016 mg/dL. It also gave a GLC [3] of 194 mg/dL, a K [3] of 4.1 meq/L and an LDH [3] of 70.8 IU/L. For the same molecule, the Na [3] was 142.2 meq/L, the PL [3] was 148.8 mg/dL and the RALB [3] was 2.6 g/dL. It also gave a TBIL [3] of 0.058 mg/dL, a TC [3] of 80 mg/dL and a TG [3] of 29.8 mg/dL. It also gave a TP [3] of 5.6 g/dL, a gamma-GTP [3] of 1 IU/L and a TERMINAL_BW [4] of 211.5 g. For the same molecule, the APTT [4] was 16.7 s, the Bas [4] was 0.2% and the Eos [4] was 1.2%. The Fbg [4] was 278.6 mg/dL, the Hb [4] was 13.6 g/dL and the Ht [4] was 40%. The Lym [4] was 78.6%, the MCHC [4] was 33.9% and the MCV [4] was 61.9 fL. It also gave a Mono [4] of 2.4%, a PT [4] of 14.3 s and a Plat [4] of 118.4 x10_4/uL. The RBC [4] was 646.4 x10_4/ul, the Ret [4] was 7.1% and the WBC [4] was 94.4 x10_2/uL. It also gave a KIDNEY_L [4] of 1 g, a KIDNEY_R [4] of 1 g and a KIDNEY_TOTAL [4] of 1.9 g. The LIVER [4] was 8.6 g, the ALP [4] was 1604.8 IU/L and the ALT [4] was 29 IU/L. The AST [4] was 66.2 IU/L, the BUN [4] was 10 mg/dL and the CRE [4] was 0.2 mg/dL. For the same molecule, the DBIL [4] was 0.02 mg/dL, the GLC [4] was 175.4 mg/dL and the K [4] was 4.2 meq/L. It also gave an LDH [4] of 102.4 IU/L, a Na [4] of 142.4 meq/L and a PL [4] of 126.6 mg/dL. For the same molecule, the RALB [4] was 2.5 g/dL, the TBIL [4] was 0.042 mg/dL and the TC [4] was 66.8 mg/dL. For the same molecule, the TG [4] was 52.4 mg/dL, the TP [4] was 5.4 g/dL and the gamma-GTP [4] was 1 IU/L.
